Experimental findings from ChEMBL document CHEMBL5465560, “Selectivity Literature for EUbOPEN Chemogenomic Library” (2024) are described below.

A value given as a limit tells only on which side of the number the result lay.

Assay [1] deals with Serine/threonine-protein kinase/endoribonuclease IRE2 (Homo sapiens) (UniProt Q76MJ5). The assay can be described thus: Selectivity interaction (LanthaScreen Eu Kinase Binding Assay) EUB0001632a ERN2. The note with it: at 10 µM.
Assay [2] deals with T1, SNF-related serine/threonine-protein kinase (Homo sapiens) (UniProt Q9NRH2).
T1 sequence (whole entry): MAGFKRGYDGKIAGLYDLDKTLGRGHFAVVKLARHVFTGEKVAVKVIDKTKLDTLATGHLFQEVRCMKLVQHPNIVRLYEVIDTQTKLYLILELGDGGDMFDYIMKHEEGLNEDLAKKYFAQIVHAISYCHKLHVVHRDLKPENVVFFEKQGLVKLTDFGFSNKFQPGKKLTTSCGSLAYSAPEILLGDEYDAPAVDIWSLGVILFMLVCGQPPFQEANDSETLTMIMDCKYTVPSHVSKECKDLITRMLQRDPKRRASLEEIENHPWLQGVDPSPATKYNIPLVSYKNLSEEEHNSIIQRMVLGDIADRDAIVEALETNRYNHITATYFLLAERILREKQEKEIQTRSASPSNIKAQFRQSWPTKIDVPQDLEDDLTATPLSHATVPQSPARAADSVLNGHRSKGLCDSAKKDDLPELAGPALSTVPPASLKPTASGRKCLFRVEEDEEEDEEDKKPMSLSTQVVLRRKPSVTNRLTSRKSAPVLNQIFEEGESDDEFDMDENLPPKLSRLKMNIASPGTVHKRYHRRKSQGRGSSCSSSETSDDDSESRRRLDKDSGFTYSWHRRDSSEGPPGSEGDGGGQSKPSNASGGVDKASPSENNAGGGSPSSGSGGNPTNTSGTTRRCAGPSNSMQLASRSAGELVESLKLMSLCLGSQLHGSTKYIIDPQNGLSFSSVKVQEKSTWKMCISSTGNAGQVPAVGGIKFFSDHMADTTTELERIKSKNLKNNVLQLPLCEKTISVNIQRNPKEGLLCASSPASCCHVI
The assay can be described thus: Selectivity interaction (Ambit KINOMEscan and KiNATiv profiling in Jurkat cells) EUB0000090b SNRK. It counts as cell-based. The note with it: at 1 µM.

Assay [3] has as its target LIM domain kinase 1 (Homo sapiens) (UniProt P53667). The assay can be described thus: Selectivity interaction (KinomeScan (DiscoverX)) EUB0001079a LIMK1. The note with it: at 1 µM.
The target of another assay is Aurora kinase A (Homo sapiens, UniProt O14965). The assay can be described thus: Selectivity interaction (Kinase panel (33PanQinase(R) Activity Assay)) EUB0000877a STK6.
Chain of Aurora kinase A (O14965 whole entry): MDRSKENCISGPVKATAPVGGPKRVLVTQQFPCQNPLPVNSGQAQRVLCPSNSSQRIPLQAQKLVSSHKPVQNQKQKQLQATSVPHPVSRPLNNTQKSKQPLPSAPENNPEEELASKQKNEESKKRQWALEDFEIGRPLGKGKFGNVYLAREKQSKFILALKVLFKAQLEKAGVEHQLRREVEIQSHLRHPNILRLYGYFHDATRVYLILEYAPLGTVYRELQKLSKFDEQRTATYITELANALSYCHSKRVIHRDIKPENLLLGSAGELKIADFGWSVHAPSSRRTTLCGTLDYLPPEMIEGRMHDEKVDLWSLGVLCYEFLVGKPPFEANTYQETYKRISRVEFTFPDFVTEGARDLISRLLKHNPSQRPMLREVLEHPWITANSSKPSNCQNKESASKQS
Assay [4] addresses Serine/threonine-protein kinase 38-like (Homo sapiens) (UniProt Q9Y2H1). The experiment in a line: Selectivity interaction (ActivX KiNativ screen (kinase selectivity in THP-1 cell lysates)) EUB0000639a STK38L. It counts as subcellular. The note with it: lysate, at 0.04 µM.
Assay [5] addresses T2, Dual specificity protein kinase TTK (Homo sapiens) (UniProt P33981).
T2 sequence (whole entry): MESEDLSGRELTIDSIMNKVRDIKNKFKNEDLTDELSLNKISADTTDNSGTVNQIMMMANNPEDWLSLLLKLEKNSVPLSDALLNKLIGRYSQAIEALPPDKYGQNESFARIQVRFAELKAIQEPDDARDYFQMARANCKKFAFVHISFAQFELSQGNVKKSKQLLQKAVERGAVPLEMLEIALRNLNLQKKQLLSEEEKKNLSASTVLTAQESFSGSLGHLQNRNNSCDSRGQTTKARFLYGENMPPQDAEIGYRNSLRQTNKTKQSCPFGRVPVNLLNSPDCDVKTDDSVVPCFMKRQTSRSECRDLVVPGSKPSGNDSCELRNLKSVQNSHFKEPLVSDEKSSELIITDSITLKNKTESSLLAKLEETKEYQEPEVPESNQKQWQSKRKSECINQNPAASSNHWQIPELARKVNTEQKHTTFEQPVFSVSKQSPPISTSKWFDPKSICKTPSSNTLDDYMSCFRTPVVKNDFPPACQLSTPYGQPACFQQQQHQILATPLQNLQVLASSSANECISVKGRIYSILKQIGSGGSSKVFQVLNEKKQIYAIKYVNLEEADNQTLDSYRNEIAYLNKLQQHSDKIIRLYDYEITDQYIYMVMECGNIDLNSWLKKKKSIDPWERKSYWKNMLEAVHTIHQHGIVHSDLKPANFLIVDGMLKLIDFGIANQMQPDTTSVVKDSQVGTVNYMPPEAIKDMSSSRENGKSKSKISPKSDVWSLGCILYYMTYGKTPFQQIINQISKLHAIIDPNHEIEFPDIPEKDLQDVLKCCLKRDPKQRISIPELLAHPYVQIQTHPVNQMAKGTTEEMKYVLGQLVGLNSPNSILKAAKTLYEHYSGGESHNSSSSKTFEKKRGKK
The experiment in a line: Selectivity interaction (KinomeScan (DiscoverX)) EUB0000695a TTK. The note with it: at 100 nM.

The target in assay [6] is Bromodomain-containing protein 8 (Homo sapiens) (UniProt Q9H0E9). The assay can be described thus: Selectivity interaction (Human bromodomain panel (DSF assay)) EUB0000233b BRD8. (In general: In DSF a fluorescence change marks the thermal transition of the protein.)
Chain of Bromodomain-containing protein 8 (Homo sapiens) (Q9H0E9 whole entry): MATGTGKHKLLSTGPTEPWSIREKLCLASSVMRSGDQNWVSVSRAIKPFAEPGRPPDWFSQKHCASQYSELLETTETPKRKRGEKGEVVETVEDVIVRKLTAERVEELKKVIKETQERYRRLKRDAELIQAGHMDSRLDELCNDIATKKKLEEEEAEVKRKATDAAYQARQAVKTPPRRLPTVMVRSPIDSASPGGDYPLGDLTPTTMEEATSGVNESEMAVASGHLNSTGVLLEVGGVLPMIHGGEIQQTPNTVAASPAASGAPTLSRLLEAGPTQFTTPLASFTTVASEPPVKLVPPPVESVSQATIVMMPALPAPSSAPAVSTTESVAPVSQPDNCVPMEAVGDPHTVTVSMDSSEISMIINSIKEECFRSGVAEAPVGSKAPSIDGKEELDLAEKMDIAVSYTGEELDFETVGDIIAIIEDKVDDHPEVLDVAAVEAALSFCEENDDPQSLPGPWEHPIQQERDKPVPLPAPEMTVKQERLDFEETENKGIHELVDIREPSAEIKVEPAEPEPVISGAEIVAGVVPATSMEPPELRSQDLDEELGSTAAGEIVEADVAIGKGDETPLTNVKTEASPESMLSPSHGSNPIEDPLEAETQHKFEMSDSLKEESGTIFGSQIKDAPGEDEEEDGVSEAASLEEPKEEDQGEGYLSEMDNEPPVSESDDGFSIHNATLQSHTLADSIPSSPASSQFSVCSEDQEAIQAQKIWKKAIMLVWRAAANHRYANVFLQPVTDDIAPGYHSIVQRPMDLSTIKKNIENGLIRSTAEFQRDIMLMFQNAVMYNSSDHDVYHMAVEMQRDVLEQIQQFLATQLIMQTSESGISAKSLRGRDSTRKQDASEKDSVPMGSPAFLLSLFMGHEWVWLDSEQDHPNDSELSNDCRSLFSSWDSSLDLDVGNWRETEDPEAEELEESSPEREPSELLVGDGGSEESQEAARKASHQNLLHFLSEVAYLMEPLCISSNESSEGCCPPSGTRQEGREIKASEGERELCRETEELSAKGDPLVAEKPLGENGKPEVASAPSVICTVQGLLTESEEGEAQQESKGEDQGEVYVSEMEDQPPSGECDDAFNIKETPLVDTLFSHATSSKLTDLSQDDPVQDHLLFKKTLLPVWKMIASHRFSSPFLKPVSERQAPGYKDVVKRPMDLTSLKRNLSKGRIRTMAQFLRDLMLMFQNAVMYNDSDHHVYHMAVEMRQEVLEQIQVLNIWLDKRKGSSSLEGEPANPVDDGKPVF

Chain of LIM domain kinase 1 (Homo sapiens) (P53667 whole entry, looked up, the tested form may be a part): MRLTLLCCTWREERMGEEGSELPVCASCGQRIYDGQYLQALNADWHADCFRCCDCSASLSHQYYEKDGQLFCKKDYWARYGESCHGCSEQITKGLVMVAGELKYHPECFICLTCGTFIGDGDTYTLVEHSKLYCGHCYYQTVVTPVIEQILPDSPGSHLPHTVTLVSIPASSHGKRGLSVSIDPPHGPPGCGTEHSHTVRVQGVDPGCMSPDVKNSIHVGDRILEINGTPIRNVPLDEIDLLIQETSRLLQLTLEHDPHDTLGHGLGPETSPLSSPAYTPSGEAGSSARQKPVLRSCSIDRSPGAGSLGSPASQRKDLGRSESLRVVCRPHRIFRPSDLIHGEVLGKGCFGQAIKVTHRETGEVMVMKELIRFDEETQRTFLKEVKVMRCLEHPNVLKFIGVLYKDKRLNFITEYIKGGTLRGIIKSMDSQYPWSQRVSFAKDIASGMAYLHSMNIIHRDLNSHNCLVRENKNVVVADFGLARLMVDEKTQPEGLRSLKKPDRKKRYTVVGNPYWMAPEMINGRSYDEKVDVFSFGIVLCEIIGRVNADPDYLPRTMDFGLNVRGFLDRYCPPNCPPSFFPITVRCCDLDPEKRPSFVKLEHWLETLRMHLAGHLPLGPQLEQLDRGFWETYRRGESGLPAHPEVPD
Chain of Serine/threonine-protein kinase/endoribonuclease IRE2 (Homo sapiens) (Q76MJ5 35-926 limits assumed): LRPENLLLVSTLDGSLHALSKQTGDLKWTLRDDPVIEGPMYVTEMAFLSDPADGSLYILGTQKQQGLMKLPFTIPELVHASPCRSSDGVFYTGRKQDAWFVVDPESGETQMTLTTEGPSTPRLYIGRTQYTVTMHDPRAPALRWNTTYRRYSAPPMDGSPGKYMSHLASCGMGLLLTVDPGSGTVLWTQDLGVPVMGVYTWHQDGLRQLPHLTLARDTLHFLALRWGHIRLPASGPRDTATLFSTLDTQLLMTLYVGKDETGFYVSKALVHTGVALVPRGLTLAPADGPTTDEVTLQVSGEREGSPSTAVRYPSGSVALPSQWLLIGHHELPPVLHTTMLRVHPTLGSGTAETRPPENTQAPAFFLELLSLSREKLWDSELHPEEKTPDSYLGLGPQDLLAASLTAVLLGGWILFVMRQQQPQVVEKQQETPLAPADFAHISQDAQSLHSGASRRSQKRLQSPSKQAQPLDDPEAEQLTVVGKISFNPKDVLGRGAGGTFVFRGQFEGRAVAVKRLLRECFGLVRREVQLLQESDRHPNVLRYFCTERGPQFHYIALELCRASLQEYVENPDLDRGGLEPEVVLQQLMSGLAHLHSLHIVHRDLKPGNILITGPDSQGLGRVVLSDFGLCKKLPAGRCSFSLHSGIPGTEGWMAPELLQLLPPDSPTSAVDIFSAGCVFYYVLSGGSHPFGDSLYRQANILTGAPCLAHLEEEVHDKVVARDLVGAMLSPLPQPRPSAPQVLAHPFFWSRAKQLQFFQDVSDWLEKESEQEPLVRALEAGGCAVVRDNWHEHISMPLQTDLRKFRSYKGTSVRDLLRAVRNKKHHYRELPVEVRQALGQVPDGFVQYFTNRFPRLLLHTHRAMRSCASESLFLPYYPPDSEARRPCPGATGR
Chain of Serine/threonine-protein kinase 38-like (Homo sapiens) (Q9Y2H1 2-464 limits assumed): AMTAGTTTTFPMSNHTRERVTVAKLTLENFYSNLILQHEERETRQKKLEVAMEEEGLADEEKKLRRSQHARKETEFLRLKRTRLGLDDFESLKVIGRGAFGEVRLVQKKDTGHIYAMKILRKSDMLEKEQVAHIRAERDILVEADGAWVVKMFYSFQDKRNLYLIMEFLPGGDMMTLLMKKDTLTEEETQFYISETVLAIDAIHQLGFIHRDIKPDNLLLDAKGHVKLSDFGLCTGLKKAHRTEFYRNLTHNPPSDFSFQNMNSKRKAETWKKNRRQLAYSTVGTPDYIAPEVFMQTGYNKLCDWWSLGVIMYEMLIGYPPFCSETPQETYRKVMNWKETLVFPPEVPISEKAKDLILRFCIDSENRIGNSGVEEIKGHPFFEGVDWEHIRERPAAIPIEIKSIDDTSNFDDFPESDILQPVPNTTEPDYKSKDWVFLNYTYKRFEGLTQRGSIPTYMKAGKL

Take `Cn1cc(-n2cnc3c(NCc4nc5cc(Cl)c(Cl)cc5[nH]4)nc(N4CCOCC4)nc32)cn1`: the % of inhibition in assay [1] is -30.9%.
Compound `CN(C)C/C=C/C(=O)Nc1ccc(C(=O)N2CCCC(Nc3ncc(Cl)c(-c4c[nH]c5ccccc45)n3)C2)cc1` (configuration not stated) came in with a % of control in assay [2] of 93%.
On to `Nc1cnc(N2CCc3cc(S(=O)(=O)Nc4c(F)cc(Cl)cc4F)cc(N4CCCC4=O)c32)nc1` [TP-020n], for which the % of control in assay [3] was determined as 100%.
In general, IC50 refers to the concentration that inhibits the measured activity by half. At Aurora kinase A, `CCC(=O)N1CC[C@H](Nc2ncnc3c2CN(c2cnc(OC)c(C(F)(F)F)c2)CC3)C1` [LENIOLISIB] registered an IC50 greater than 10 µM.
Consider `CC[C@@H]1[C@H](F)C(=O)N[C@@H]1COc1nccc2cc(C(N)=O)c(OC)cc12` [ZIMLOVISERTIB], for which, in assay [4], the % of inhibition was found to be 7.6%.
Regarding `Cc1cc(F)c(C(=O)Nc2cccc(-c3nncn3C(C)C)n2)cc1-n1cnc(C2CC2)c1`, the % of control in assay [5] worked out at 87%.
As to `CN(C)CCCOc1ccc(-c2cc(NCCCn3cccn3)nc(S(C)(=O)=O)n2)cc1`, the dTM in assay [6] was less than 2 K.
